# Results taken from paper PMC2949700, “Identification of the full set of Listeria monocytogenes penicillin-binding proteins and characterization of PBPD2 (Lmo2812)” (BMC Microbiology, 2010).
# Where two headings read alike, the source gives them in different places.
# Experiments:
# [1] = tested on: purified recombinant Lmo2812; test: DD-carboxypeptidase activity assay with synthetic tripeptide; type: biochemical, Listeria monocytogenes; settings: substrate up to 12.5 mM, 40 μg of purified protein
# Experimental: The maximum activity was 0.75 pmoles/μg min, indicating low DD-carboxypeptidase activity under these assay conditions.
# A modification of the method of Frere et al. was used for DD-carboxypeptidase activity measurement. A reaction mixture comprised of 15 μl of Nα,Nε-Diacetyl-Lys-D-Ala-D-Ala (25 mM), 3 μl of buffer (300 mM Tris-HCl pH 7.5) and 12 μl of purified recombinant Lmo2812 was prepared, incubated at 37°C and samples were taken every 10 min for 1 h. To these samples, 5 μl of 10 mg/ml (in methanol) o-Dianisidine (SIGMA) and 70 μl of enzyme/coenzyme mix (flavinadenine dinucleotide (FAD), Peroxidase and D-Amino acid Oxidase) were added. These mixtures were incubated at 37°C for 5 min, then 400 μl of methanol-water (v/v) was added and incubation continued at 37°C for another 2 min. The absorbance of each reaction was immediately read at 460 nm. A number of controls were performed: reactions containing only recombinant Lmo2812 fractions, reactions lacking recombinant Lmo2812 to establish the level of natural degradation of the tripeptide for at each sampling point, and standard samples containing known amounts of D-alanine.
# [2] = tested on: L. monocytogenes KD2812 (Δlmo2812); test: Microdilution MIC test; type: cell-based, Listeria monocytogenes
# Experimental: (§1) To determine the effect of these mutations on cell morphology, the strains EGD, KD2812 and DA07 were analyzed by scanning electron microscopy (SEM). […] At 30°C the average cell length compared to strain EGD was increased by 38.5% in strain KD2812 and by 44.8% in the double mutant strain. The respective values at 37°C were 37.5% and 43%. […] The variant cells were characteristically curved with a bend at either one or both ends and subterminal constrictions. The number of cells with altered morphology was increased as the growth temperature was raised (Figure 3; b, e, h). Cell bending was more pronounced in the population of AD07 mutant cells (Figure 3; c, f, i). […] Similar results were found for a mutant of L. monocytogenes lacking PBP5 (PBPD1) examined in a previous study.
# (§2) Microdilution tests were performed using cation-adjusted Mueller-Hinton broth (CAMHB) supplemented with 5% lysed horse blood containing two-fold dilutions of the antimicrobial agents. These mixtures were dispensed in 100 μl aliquots into plastic 96-well plates. To prepare inocula, a single colony of each strain from a TSBYE plate was transferred into 10 ml of the same medium and incubated for 24 h at 37°C. These cultures were serially diluted in CAMHB to a concentration of 10^5 cfu/ml and 100 μl aliquots were added to the microdilution plates. The plates were incubated for 18-20 h at 37°C before the reading of the MIC endpoints. The MIC was the lowest antibiotic concentration at which visible growth was inhibited.
# [3] = tested on: L. monocytogenes AD07 (Δlmo2812 Δlmo2754); test: Microdilution MIC test; type: cell-based, Listeria monocytogenes
# Experimental: as §1, §2
# L. monocytogenes EGD = test: Microdilution MIC test; type: cell-based, Listeria monocytogenes
# Experimental: as §1, §2
# recombinant Lmo2812 = test: Enzymatic activity assay with natural muropeptides; type: biochemical, Listeria monocytogenes; settings: for M4 (%) / M5 (%): 120 min at 37°C, HPLC
# Experimental: No such cleavage occurred in the absence of Lmo2812.
# The pH-dependence of the activity of Lmo2812 against monomeric muropepeptide M5 was determined in the pH range of 4.5 to 7.0. The highest activity was detected in assays performed at pH 7.0 in a Tris-Mg buffer, where half of the substrate was converted to the tetrapeptide (Table 3).
# Whole total peptidoglycan and purified muropeptides were isolated from E. coli cells as described previously. A 10 μg sample of recombinant Lmo2812 was mixed with 5 μg of M5 (NAcGlc-NAcMur-pentapeptide) or D45 (NAcGlc-NAcMur-tetrapeptide-NAcGlc-NAcMur-pentapeptide) in a volume of 30 μl using three different buffer conditions: pH 4.5 (50 mM NaPi, 1% methanol, pH 4.5), pH 7.0 (30 mM Tris-HCl, 3 mM MgCl2, pH 7.0), or NaPi (50 mM sodium phosphate buffer, pH 7.0). These mixtures were incubated at 37°C for 120 min. Control samples of M5 or D45 without Lmo2812 were similarly incubated in 30 mM Tris-HCl buffer, 3 mM MgCl2, pH 7.0. The samples were analyzed by HPLC using a C18 reversed phase column and a methanol gradient to separate the peaks.
# [4] = target: purified recombinant Lmo2812 (PBPD2) (Listeria monocytogenes, UniProt Q8Y3M3); test: Fluorescent antibiotic binding assay, purified recombinant protein; settings: purified recombinant Lmo2812; antibiotic concentration for 50% of maximum binding; read-out: apparent affinity constant (Kd50)
# Experimental: The purified protein was incubated with different concentrations of Boc-FL (0.25, 0.5, 2.5, 5 and 10 μM). […] Lmo2812 was the major band on gels, with a slower migrating minor band thought to represent a dimeric form (Figure 2).
# Figure 2 Purified recombinant L. monocytogenes Lmo2812 (PBPD2) identified with Boc-FL. Samples of purified recombinant Lmo2812 (10 μg) were labeled with Boc-FL at concentrations of 0 (1), 0.25 (2), 0.5 (3), 2.5 (4), 5 (5) and 10 μM (6). Labeled bands were detected directly on the gel, quantified and their molecular mass estimated. The affinity of the bands for Boc-FL (Kd50) was estimated from their fluorescence as a function of the concentration of Boc-FL. The names of the bands are indicated on the right, and the positions of the molecular weight markers are shown on the left.
# The β-lactam binding capacity of Lmo2812 was evaluated with three different fluorescent antibiotics: Boc-FL, Boc-650 and Amp-430.
# Total whole cell proteins or purified recombinant protein resuspended in 50 mM NaPi buffer, pH 7.0 were labeled by incubation at 37°C for 30 min with different concentrations of Boc-FL (Molecular Probes), Boc-650 (Molecular Probes) or Amp-430 (prepared in the laboratory by coupling ampicillin to Alexa-430), and then separated on a 10% acrylamide, 3.3% cross-linkage SDS-PAGE gel. To avoid degradation of the fluorescent β-lactam antibiotics by β-lactamases, samples were incubated at 37°C with clavulanic acid at a final concentration of 10 μg/ml or EDTA at a final concentration of 10 mM for 30 min before labeling, where appropriate. Competition experiments were carried out by preincubation of the samples with ampicillin (100 μg/ml) for 30 min at 37°C, before adding the fluorescent antibiotic. The samples were then further incubated for 30 min at 37°C. PBPs were visualized directly on the polyacryloamide gel by fluorescence using a Typhoon 9410 imager (Amersham Biosciences) with excitation wavelengths of 588, 633 or 457 nm and emission filters 520BP40, 670BP30 or 555BP20 for Boc-FL, Boc-650 and Amp-430, respectively. […]
# [5] = Listeria monocytogenes, EGD wild-type, CAMHB with 5% lysed horse blood, 18-20 h at 37°C, read-out: MIC
# [6] = KD2812 mutant, CAMHB with 5% lysed horse blood, 18-20 h at 37°C
# [7] = AD07 double mutant, CAMHB with 5% lysed horse blood, 18-20 h at 37°C
# [8] = EGD wild-type, CAMHB with 5% lysed horse blood, 18-20 h at 37°C
# purified recombinant Lmo2812 (PBPD2), sequence (Q8Y3M3 entry or part of it): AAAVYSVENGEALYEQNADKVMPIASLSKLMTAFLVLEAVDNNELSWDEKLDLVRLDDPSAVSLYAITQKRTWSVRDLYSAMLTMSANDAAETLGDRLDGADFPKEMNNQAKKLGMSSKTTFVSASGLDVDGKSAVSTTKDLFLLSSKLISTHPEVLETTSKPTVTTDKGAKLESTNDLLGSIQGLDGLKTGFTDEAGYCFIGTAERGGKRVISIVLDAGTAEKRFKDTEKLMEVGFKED
compound,measurement,setting,value
"Nα,Nε-Diacetyl-Lys-D-Ala-D-Ala",maximum DD-carboxypeptidase activity,[1],0.75 pmol/µg/min
CCN1CCN(C(=O)N[C@@H](C(=O)N[C@@H]2C(=O)N3[C@@H]2SC(C)(C)[C@@H]3C(=O)O)c2ccccc2)C(=O)C1=O [piperacillin],MIC,[2]; Listeria monocytogenes,1.25 µg/mL
same,MIC,[3]; Listeria monocytogenes,1.25 µg/mL
same,MIC,L. monocytogenes EGD; Listeria monocytogenes,1.25 µg/mL
Cc1onc(-c2ccccc2)c1C(=O)N[C@@H]1C(=O)N2[C@@H]1SC(C)(C)[C@@H]2C(=O)O [oxacillin],MIC,[3]; Listeria monocytogenes,1.25 µg/mL
same,MIC,L. monocytogenes EGD; [5],2.5 µg/mL
NAcGlc-NAcMur-pentapeptide [M5],M4 (%),"recombinant Lmo2812; Lmo2812, M5, NaPi, pH 7.0",16%
same,M5 (%),"recombinant Lmo2812; Lmo2812, M5, NaPi, pH 7.0",84%
same,M4 (%),"recombinant Lmo2812; Lmo2812, M5, Tris-Mg, pH 7.0",48%
same,M5 (%),"recombinant Lmo2812; Lmo2812, M5, Tris-Mg, pH 7.0",52%
same,M4 (%),"recombinant Lmo2812; Lmo2812, M5, pH 4.5",3%
same,M5 (%),"recombinant Lmo2812; Lmo2812, M5, pH 4.5",97%
Ampicillin-Alexa430 [Amp-430],Kd,[4],18.5 µM
CO/N=C(\C(=O)N[C@@H]1C(=O)N2C(C(=O)O)=C(COC(C)=O)CS[C@H]12)c1csc(N)n1 [cefotaxim],MIC,[2]; [6],6 µg/mL
same,MIC,[3]; [7],6 µg/mL
same,MIC,L. monocytogenes EGD; [8],6 µg/mL
CO[C@@]1(NC(=O)Cc2cccs2)C(=O)N2C(C(=O)O)=C(COC(N)=O)CS[C@@H]21 [cefoxitin],MIC,[2]; Listeria monocytogenes,32 µg/mL
same,MIC,[3]; Listeria monocytogenes,32 µg/mL
same,MIC,L. monocytogenes EGD; Listeria monocytogenes,32 µg/mL
penicillin,MIC,[2]; [6],0.16 µg/mL
same,MIC,[3]; [7],0.08 µg/mL
same,MIC,L. monocytogenes EGD; [8],0.16 µg/mL
NAcGlc-NAcMur-tetrapeptide-NAcGlc-NAcMur-pentapeptide [D45],hydrolysis by purified Lmo2812,"recombinant Lmo2812; up to 100 μg of protein, up to 18 h",no such enzymatic activity was detected
Bocillin-650 [Boc-650],Kd,[4],2.8 µM
CC(C)(O/N=C(\C(=O)N[C@@H]1C(=O)N2C(C(=O)[O-])=C(C[n+]3ccccc3)CS[C@H]12)c1csc(N)n1)C(=O)O [ceftazidime],MIC,[2]; Listeria monocytogenes,256 µg/mL
same,MIC,[3]; Listeria monocytogenes,256 µg/mL
same,MIC,L. monocytogenes EGD; Listeria monocytogenes,256 µg/mL
CC(=O)OCC1=C(C(=O)O)N2C(=O)[C@@H](NC(=O)Cc3cccs3)[C@H]2SC1 [cefalotin],MIC,L. monocytogenes EGD; [5],2 µg/mL
